Measured values from PMC9967275, “Screening the Pathogen Box to Discover and Characterize New Cruzain and TbrCatL Inhibitors” (Pathogens, 2023).

Columns and labels:
cruzain = cruzain (Trypanosoma cruzi, UniProt P25779); assay: biochemical; details: for Cruzain 0’ Inhibition / Cruzain 10’ Inhibition: sheet "Screening results"
In short: (§1)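 Recombinant enzymes assayed by Z-Phe-Arg-AMC cleavage at 25 °C, fluorescence 340/440 nm over 5–7 min, with 10 min or no enzyme–compound preincubation.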

TbrCatL = target: T1, TbrCatL (Trypanosoma brucei rhodesiense, UniProt Q95PM0); assay: TbrCatL enzymatic inhibition assay (cleavage of fluorogenic substrate Z-FR-AMC); format: biochemical; details: for TbrCatL 0’ Inhibition / TbrCatL 10’ Inhibition: sheet "Screening results"
T1 construct: Conor Caffrey (University of California San Diego)
T1 sequence (Q95PM0 entry or part of it): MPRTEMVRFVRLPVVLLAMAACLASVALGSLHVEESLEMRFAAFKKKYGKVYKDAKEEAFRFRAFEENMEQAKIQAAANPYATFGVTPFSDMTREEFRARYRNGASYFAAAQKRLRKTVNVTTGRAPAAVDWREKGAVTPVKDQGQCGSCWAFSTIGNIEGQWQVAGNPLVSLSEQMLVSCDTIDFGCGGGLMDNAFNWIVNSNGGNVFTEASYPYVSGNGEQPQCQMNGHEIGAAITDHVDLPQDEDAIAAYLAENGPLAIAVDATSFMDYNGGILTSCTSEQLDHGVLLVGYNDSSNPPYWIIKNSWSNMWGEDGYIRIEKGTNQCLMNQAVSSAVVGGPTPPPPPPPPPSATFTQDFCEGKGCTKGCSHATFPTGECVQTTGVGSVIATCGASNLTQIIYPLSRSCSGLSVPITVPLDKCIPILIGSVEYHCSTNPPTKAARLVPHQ
In short: as §1

[1] = 0’ (no pre-incubation), sheet Screening results
[2] = 10’ (pre-incubation), sheet Screening results
[3] = 0’ (pre-incubation time), Pathogen Box screening results
[4] = 10’ (pre-incubation time), Pathogen Box screening results
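Also: at 5 µM compound concentration.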

Chain of cruzain (P25779 123-337 limits assumed): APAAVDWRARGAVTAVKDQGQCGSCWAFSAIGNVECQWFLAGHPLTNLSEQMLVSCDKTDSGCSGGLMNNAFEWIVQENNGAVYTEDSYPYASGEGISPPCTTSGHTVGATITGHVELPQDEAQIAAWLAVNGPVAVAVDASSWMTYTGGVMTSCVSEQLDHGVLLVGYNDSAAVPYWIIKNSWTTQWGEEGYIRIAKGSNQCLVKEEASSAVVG

Compound | Cruzain 0’ Inhibition (cruzain; 0’ (pre-incubation time)) | Cruzain 10’ Inhibition (cruzain; 10’ (pre-incubation time)) | TbrCatL 0’ Inhibition (TbrCatL; 0’ (pre-incubation time)) | TbrCatL 10’ Inhibition (TbrCatL; 10’ (pre-incubation time)) | Cruzain Inhibition 0’ (cruzain; [1]) | Cruzain Inhibition 10’ (cruzain; [2]) | TbrCatL Inhibition 0’ (TbrCatL; [1]) | TbrCatL Inhibition 10’ (TbrCatL; [2]) | other results
O=C(c1ccc(NCCO)cc1)C1C[C@H]1c1ccc(Cl)cc1 (stereo partly shown) [MMV676877] | 9% | 5.5% | 1.1% | 9% |  |  |  |  | 
CCCCN(CCCC)c1c(C#N)cc(S(=O)(=O)Nc2ccccc2)cc1C#N [MMV688467] | -2.2% | 1.8% | -4.5% | 8% |  |  |  |  | 
C[C@@H]1[C@H](O)[C@@H](C)/C=C/C=C/C=C/C=C/C=C/C=C/C=C/[C@H](O[C@@H]2O[C@H](C)[C@@H](O)[C@H](N)[C@@H]2O)C[C@@H]2O[C@](O)(C[C@@H](O)C[C@@H](O)[C@H](O)CC[C@@H](O)C[C@@H](O)CC(=O)O[C@H]1C)C[C@H](O)[C@H]2C(=O)O [MMV689000] | 10% | 10% | 11% | 9% |  |  |  |  | 
C[C@H]1COC2(CCN(c3nc(=O)c4cc(C(F)(F)F)cc([N+](=O)[O-])c4s3)CC2)O1 [MMV676603] |  |  |  |  | 1.3% | 1.7% | 4.5% | 2.8% | 
CC(=O)NC[C@H]1CN(c2ccc(-c3ccc(CNCc4cn[nH]n4)cc3)c(F)c2)C(=O)O1 [MMV688327] |  |  |  |  | -3.5% | 4% | -5.5% | 6.4% | 
OCc1ccc(-c2cncc(Nc3cccc(Cl)c3)c2)cc1 [MMV026468] | 0% | 2.8% | 1.7% | 2.7% |  |  |  |  | 
CC1=NN(c2nc3ccccc3s2)C(=O)C1Cc1cccc2ccccc12 (stereo not shown) [MMV676558] |  |  |  |  | -23% | -18% | -23% | -63% | 
Cc1ccc(S(=O)(=O)n2cc(-c3ccnc(N)c3)c3cc(Br)cnc32)cc1 [MMV024114] | -9% | 15% | -5% | 1.6% |  |  |  |  | 
CN1CCN(c2nccc3nc(-c4ccc(F)c(F)c4)[nH]c23)CC1 [MMV676260] | -9% | 1.2% | 0.7% | 5% |  |  |  |  | 
Cc1cccc(C(=O)Nc2ccnc(N(C)C3CCN(CC(C)C)CC3)c2)c1 [MMV024829] | 9% | 7% | 4% | 7% |  |  |  |  | 
Cc1ccc(S(=O)(=O)N2CCN(C(=O)c3cc(-c4ccccc4)n[nH]3)CC2)cc1 [MMV019742] |  |  |  |  | -5% | -3% | 3.5% | -2.5% | 
COc1cccc(OCC(=O)c2ccc(Br)cc2)c1 [MMV676379] |  |  |  |  | 8% | 14% | 9% | 20% | 
O=C(Nc1cnc2ccccc2c1)c1cccc(-n2cnnn2)c1 [MMV084864] |  |  |  |  |  |  |  |  | Cruzain Inhibition 0’ (cruzain; [3]): 0%; Cruzain Inhibition 10’ (cruzain; [4]): 11%; TbrCatL Inhibition 0’ (TbrCatL; [3]): -11%; TbrCatL Inhibition 10’ (TbrCatL; [4]): 5%
COc1ccc2nc(C)cc(OCC(=O)NCc3ccccc3)c2c1 [MMV687189] | 4.5% | -1.1% | 2.6% | 5% |  |  |  |  | 
CCN(CC)S(=O)(=O)c1ccc(Cl)c(C(=O)Nc2ccc3nc(C)sc3c2)c1 [MMV019721] |  |  |  |  | 6.4% | 6.4% | 5% | -2.6% | 
NCCN(C(=O)c1ccc(Cl)cc1Cl)c1ccc(OCc2ccc(Cl)cc2)cc1 [MMV688371] |  |  |  |  | 9% | 12% | 6% | 1% | 
CC(C)(CN)c1nc(-c2ccc(Cl)c(O)c2)c(-c2ccnc(N)n2)[nH]1 [MMV030734] | 5% | -5.6% | 7.5% | -9.5% |  |  |  |  | 
Nc1ccc(C(=O)Nc2ccc(-c3nc4ccccc4o3)cc2)cc1 [MMV007920] | 7% | 11% | 4.7% | -0.7% |  |  |  |  | 
Clc1ccc(CCNc2cc(-c3ccccc3)nc3ncnn23)cc1 [MMV688889] |  |  |  |  | 15% | 14% | 20% | 13% | 
CCC(Sc1nc2ccccc2o1)C(=O)Nc1nccs1 (stereo not shown) [MMV676383] |  |  |  |  | 3.5% | 4% | 10% | 7.5% | 
CN1CCCN(C(c2ccccc2)c2ccc(Cl)cc2)CC1 (stereo not shown) [MMV004168] | 3.6% | 6.6% | -5.4% | 1.8% |  |  |  |  | 
COc1ccc(-c2nn(C(C)C)c3ncnc(N)c23)cc1OC [MMV675993] | -7% | -1.8% | -7% | -5.6% |  |  |  |  | 

Compound | Cruzain 0’ Inhibition (cruzain; 0’ (pre-incubation time)) | Cruzain 10’ Inhibition (cruzain; 10’ (pre-incubation time)) | TbrCatL 0’ Inhibition (TbrCatL; 0’ (pre-incubation time)) | TbrCatL 10’ Inhibition (TbrCatL; 10’ (pre-incubation time)) | Cruzain Inhibition 0’ (cruzain; [1]) | Cruzain Inhibition 10’ (cruzain; [2]) | TbrCatL Inhibition 0’ (TbrCatL; [1]) | TbrCatL Inhibition 10’ (TbrCatL; [2]) | other results
Cc1ccc2[nH]c3c(NCCN(C)C)ncnc3c2c1 [MMV006372] |  |  |  |  | 27% | 21% | 10% | 14% | 
COc1ccc(C2=NN(C3CCCCCC3)C(=O)C2(C)C)cc1OCc1ccccn1 [MMV688360] |  |  |  |  | 14% | 11% | 13% | 16% | 
NC(=O)c1cc(-c2ccsc2)ccc1OCCOc1ccccc1 [MMV687138] | 2.4% | 4% | 0.2% | -2.4% |  |  |  |  | 
COc1cccc(NC(=O)c2c(NC(=O)c3cccnc3)sc3c2CCC3)c1 [MMV228911] |  |  |  |  |  |  |  |  | Cruzain Inhibition 0’ (cruzain; [3]): -1.4%; Cruzain Inhibition 10’ (cruzain; [4]): 4.7%; TbrCatL Inhibition 0’ (TbrCatL; [3]): -8.5%; TbrCatL Inhibition 10’ (TbrCatL; [4]): 4.5%
Cc1cc2nc(NC(=O)C(C)(C)C)nc(Cl)c2n1Cc1ccc(Cl)cc1 [MMV688704] |  |  |  |  | 11% | 10% | 16% | 16% | 
c1ccc(-c2[nH]c3ccccc3c2C(c2ccccn2)N2CCCC2)cc1 (stereo not shown) [MMV688762] |  |  |  |  | 3.2% | 1% | 3.2% | 1.8% | 
COc1ccccc1C(C)NCC(=O)Nc1cc(C(F)(F)F)ccc1Cl (stereo not shown) [MMV020321] |  |  |  |  | 0.3% | -0.8% | -9% | -10% | 
COc1cccn2c(C(=O)N3CCCCC3)c(C(F)(F)F)nc12 [MMV1110498] |  |  |  |  | 8% | 9% | 13% | 6.4% | 
O=C(NC1CCN(c2ccnc3ccccc23)C1)c1cccc(C(F)(F)F)c1 (stereo not shown) [MMV023388] | 8% | 14% | 10% | 13% |  |  |  |  | 
c1ccc2c(c1)CN(CC1CC1)CC1(CCN(Cc3c[nH]c4cnccc34)CC1)O2 [MMV023183] | 3.5% | 15% | 6% | 1.8% |  |  |  |  | 
Cc1nc(-c2ccccn2)nc(N(C)CCc2ccccc2)c1Cl [MMV658988] |  |  |  |  |  |  |  |  | Cruzain Inhibition 0’ (cruzain; [3]): -3%; Cruzain Inhibition 10’ (cruzain; [4]): 14%; TbrCatL Inhibition 0’ (TbrCatL; [3]): -5.5%; TbrCatL Inhibition 10’ (TbrCatL; [4]): 10%
O=C(Nc1ccc(N2CCNCC2)cc1)c1ccn2ncc(-c3cccc(Cl)c3)c2n1 [MMV022478] | 15% | 18% | 1.7% | 10% |  |  |  |  | 
COc1ccccc1OCCCCn1c(C2CC2)nc2ccccc21 [MMV676474] |  |  |  |  | -7% | -11% | -3.8% | -17% | 
O=C(c1n[nH]c2c1CCCC2)N1CCN(Cc2ccc3c(c2)OCO3)CC1 [MMV676389] |  |  |  |  | -6% | -3.4% | -12% | -7% | 
O=C(CCC1CCCCC1)Nc1cccc(-c2nnc(-c3ccco3)o2)c1 [MMV676589] |  |  |  |  | 0% | 4% | 3.3% | 4.4% | 
Oc1c(I)cc(I)c2cccnc12 [MMV002817] |  |  |  |  | 0.2% | -16% | 0.5% | -24% | 
Cc1nn(Cc2ccccc2)c(Cl)c1C(=O)NC1CCCCCC1 [MMV063404] |  |  |  |  | 11% | 7.6% | 7.6% | 2% | 
O=C([C@@H](c1ccc(Cl)cc1)c1cccnc1)N1CCN(c2ccc(C(F)(F)F)cc2)CC1 [MMV689244] | 2.7% | -3.2% | 6.4% | -2.8% |  |  |  |  | 
CCOc1ccc2cc(-c3nn(CC4CCN(C)CC4)c4ncnc(N)c34)ccc2c1 [MMV688854] |  |  |  |  | 27% | 11% | 2.7% | -5% | 
Cc1nc(-c2cccc(NCc3ccccc3)c2)[nH]c1C [MMV023227] | 2% | 15% | -7% | 22% |  |  |  |  | 
CCCn1c(NC(=O)c2ccc3ccccc3n2)nc2ccccc21 [MMV1030799] | -3.4% | 2.4% | -8% | -11% |  |  |  |  | 
